GI50 and TGI data for ten compounds are collected here from PubChem BioAssay (NCI).

Each structure is given as a SMILES string.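 Values below derive from 48-hour exposures of cells grown in 96-well plates, with endpoints linearly interpolated between the two concentrations bracketing the appropriate inhibition level. The concentration for 50% growth inhibition is given as GI50. Definition used: TGI = concentration required for complete inhibition of growth.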

What all share (assay): inhibition of tumour cell growth, NCI panel, 48 h
Assay [1] relates to U251 CNS.
The subject of assay [2] is HCT-15 colon.
Assay [3] deals with SW-620 colon.
The test system of assay [4] is ACHN renal.
Assay [5] relates to KM12 colon.
For assay [6], the system named is SNB-75 CNS.
Assay [7] deals with SF-539 CNS.
Assay [8] concerns IGROV1 ovarian.
For assay [9], the system named is SF-295 CNS.
Assay [10] concerns UACC-257 melanoma.

Take `Cc1nc2sccn2c1-c1csc(Nc2ccccc2Cl)n1`: the GI50 in assay [1] was 3.7 µM; in [2], 2.64 µM; in assay [3], 3.22 µM; in assay [4] it was 4.52 µM; in assay [5], 2.61 µM; in assay [6] it was 4.08 µM. Also, the GI50 in assay [7] was 3.2 µM; in assay [8] it was 5.45 µM; in [9] it was 1.55 µM; in [10] it was 3.69 µM. Further, the TGI in [1] was 24.1 µM; in [2] it was 32.5 µM; in [3], 25.9 µM; in [4], 62.3 µM; in [5] it was 24.5 µM; in assay [6] it was 60.3 µM. Besides, the TGI in assay [7] came to 16.3 µM; in assay [8] it was 50 µM; in assay [9] it was 5.98 µM; in assay [10] it was 17.9 µM.
Take `CN(C)C(=S)N=C(Nc1ccccc1)Nc1ccccc1`: the TGI in assay [1], in assay [2], in [3], in assay [4], in assay [5] and in [6] was more than 100 µM each time. In addition, the TGI in assay [7], in assay [8], in assay [9] and in assay [10] was more than 100 µM each time.
`NC1=NCCC1(c1ccccc1)c1ccccn1` (stereo not given): the TGI in [1], in assay [2], in assay [3], in [4], in assay [5] and in assay [6] was more than 100 µM in each case. Also, the TGI in assay [7], in assay [8], in assay [9] and in assay [10] was more than 100 µM in each case.
Take `NS(=O)(=O)OC[C@@H]1C[C@@H](n2ccc3c(NC4CCc5ccccc54)ncnc32)C[C@@H]1O` (stereo not given in full): the GI50 is 0.559 µM in [1]; 2.59 µM in assay [2]; 3.34 µM in [3]; 0.332 µM in assay [4]; 1.13 µM in assay [5]; 20.8 µM in assay [6]. Moreover, the GI50 is 1.28 µM in assay [7], 7.83 µM in assay [8], 0.337 µM in [9] and 1.02 µM in assay [10]. Moreover, the TGI in [1] was 36.9 µM; in assay [2] it was 70.1 µM; in assay [3] it was more than 77.6 µM; in assay [4], 1.8 µM; in [5], 49.1 µM; in [6], more than 100 µM. The TGI in [7] was 20.3 µM; in [8] it was more than 100 µM; in [9] it was 4.52 µM; in assay [10], more than 90.7 µM.
For the compound `O=C(CCNC12CC3CC(CC(C3)C1)C2)c1ccccc1`, the TGI in assay [1] was 31.9 µM; in [2], 40.2 µM; in assay [3], 35.6 µM; in [4], 88.7 µM; in assay [5], 91.1 µM; in [6], 65.3 µM. Besides, the TGI in assay [7] is 40.3 µM; in [8], 55.4 µM; in assay [9] it was 50.2 µM; in [10] it was 49.4 µM.
As to `CCC(=O)[C@H](C)[C@@H](OC(=O)[C@H](C)CC)[C@H](C)[C@H]1OC(CC)=C(C)C(=O)[C@@H]1C`, the GI50 in assay [1] is 17.6 µM; in assay [2] it was 17 µM; in assay [3], 24.7 µM; in assay [4], 30 µM; in assay [5] it was 19.5 µM; in assay [6] it was 31.8 µM. In addition, the GI50 in assay [7] is 18.1 µM; in assay [8] it was 17.1 µM; in [9], 21.8 µM; in [10] it was 33.2 µM. Further, the TGI in assay [1] is 35.8 µM; in assay [2], 42.2 µM; in assay [3], 62.5 µM; in assay [4], more than 100 µM; in assay [5], 52.5 µM; in [6] it was 80.3 µM. For the same compound, the TGI in assay [7] is 33.1 µM; in [8] it was 46.7 µM; in assay [9] it was 43.7 µM; in assay [10], more than 100 µM.
On to `Cc1cc(N(CCC#N)CCC#N)ccc1N=Nc1ccc(S(N)(=O)=O)cc1`, for which the TGI in [1], in [2], in assay [3], in assay [4], in assay [5] and in [6] was more than 100 µM throughout. The TGI in assay [7], in [8], in [9] and in assay [10] was more than 100 µM each time.
As for `Nc1c(C(=O)c2cccc(CCS(N)(=O)=O)c2)cnn1-c1ccc(F)cc1`, the GI50 in [1], in [2], in [3], in assay [4], in [5] and in assay [6] was more than 25 µM each time. The GI50 in assay [7], in assay [8], in assay [9] and in [10] was more than 25 µM throughout. Besides, the TGI in assay [1], in assay [2], in assay [3], in assay [4], in [5] and in [6] was more than 25 µM each time. Further, the TGI in assay [7], in assay [8], in assay [9] and in assay [10] was more than 25 µM each time.
Take `OCC1=CC(NC2CC(CO)C(O)C(O)C2O)C(O)C(O)C1O` (stereo not given): the TGI in assay [1], in assay [2], in [3], in assay [4], in [5] and in [6] was more than 100 µM in each case. For the same compound, the TGI in assay [7], in assay [8], in assay [9] and in assay [10] was more than 100 µM in each case.
For `NC(=O)NO.O.O.O.O.O.O.O.O.O.O.O.[Ge].[Ge].[Ge].[Ge].[Ge].[O]=[Ge].[O]=[Ge].[O]=[Ge].[O]=[Ge].[O]=[Ge][OH]`, the TGI in [1] was 69.9 µM; in assay [2], more than 100 µM; in assay [3] it was more than 100 µM; in assay [4], more than 100 µM; in assay [5], more than 100 µM; in assay [6] it was more than 100 µM. Besides, the TGI in assay [7], in assay [8], in assay [9] and in assay [10] was more than 100 µM in each case.
